Assay results reported in patent US20130225609A1, “COMBINATIONS OF MEDICAMENTS, CONTAINING PDE4-INHIBITORS AND EP4-RECEPTOR-ANTAGONISTS” (BOEHRINGER INGELHEIM INTERNATIONAL GMBH, priority 2010, published 2013).

Assays:
[1] = Experiment 1: diclofenac and roflumilast-mediated side effects in rats
Description: Six male Wistar rats in each group were treated for four days with the following substances (all substances are given p.o.=orally):
Group 1 (“Control Group”):
Six male Wistar rats were given a daily dose of 0.5% Natrosol (placebo) at the times 0800, 1300 and 1700 hours.
Group 2 (“Diclofenac Group”):
Six male Wistar rats were given a daily dose of 1 mg/kg of diclofenac (NSAID) at the times 0800 and 1700 hours and 0.5% Natrosol (placebo) at 1300 hours.
Group 3 (“Roflumilast Group”):
Six male Wistar rats were given a daily dose of 0.5% Natrosol (placebo) at 0800 and 1700 hours and 10 mg/kg roflumilast (PDE4 inhibitor) at 1300 hours.
Group 4 (“Roflumilast+Diclofenac Group”):
Six male Wistar rats were given a daily dose of 1 mg/kg diclofenac (NSAID) at the times 0800 and 1700 hours and 10 mg/kg roflumilast (PDE4 inhibitor) at 1300 hours.
For pharmacokinetic analysis (determining the plasma levels of the substances) on day 4 one rat from each group was used; these rats were no longer available for other parameters under investigation.
During the experiment the body weights of the animals were determined and the differences in the body weights of the rats from the different groups towards the end of the experiment were shown as a percentage change from the time of the first administration (=day 1, 0800 hours (=time t0)). The average±standard deviation of the body weights at time t0 was 355±17 g.
At the end of the experiment (day 5, 95 hours after t0 (=the time of the first administration on day 1, 0800)) the proportion of neutrophils (in % of white blood cells, FIG. 2) were determined from the blood of 4 or 5 of the rats from the individual groups. In addition, the weights of the animals' spleens were measured and the mesenteries were dissected for histopathological investigation for vasculitis (multifocal perivascular mononuclear/polymorphonuclear infiltration).

[2] = Experiment 2: Lumiracoxib (COX-2 selective) / SC-560 (COX-1 selective) and roflumilast-mediated side effects in rats; type: in vivo, male Wistar rats; details: four days
Excerpt: Six male Wistar rats were given a daily dosage of 0.5%
For pharmacokinetic analysis (determining plasma levels of the substances) one rat from each group was used on day 4; these rats were no longer available for the investigation of other parameters.

[3] = Experiment 3: EP4 antagonist MF498 and roflumilast-mediated side effects in rats; type: in vivo, male Wistar rats; details: four days
Description: Six male Wistar rats were given a daily dosage of 0.5% Natrosol (Placebo) at 1300 hours.
Six male Wistar rats were given a daily dosage of 20 mg/kg MF-498 (EP4 antagonist) in each case at 1300 hours.
Six male Wistar rats were given a daily dosage of 10 mg/kg Roflumilast (PDE4 inhibitor) at 1300 hours.

[4] = Experiment 4: EP2-preferential antagonist AH6809 and roflumilast-mediated side effects in rats; type: in vivo, male Wistar rats; details: four days
Description: Six male Wistar rats were given a daily dosage of 10 mg/kg AH-6809 (preferential EP2 antagonist) at 1300 hours. Six male Wistar rats were given a daily dosage of 10 mg/kg Roflumilast (PDE4 inhibitor) at 1300 hours.

[5] = 1 mg/kg p.o. at 0800 and 1700 hours + 10 mg/kg roflumilast p.o. at 1300 hours, four days
[6] = 2 mg/kg p.o. at 0800 and 1700 hours + 10 mg/kg roflumilast p.o. at 1300 hours
[7] = Roflumilast group: 10 mg/kg roflumilast p.o. daily
[8] = 10 mg/kg p.o. + 10 mg/kg roflumilast p.o. at 1300 hours
[9] = 20 mg/kg p.o. + 10 mg/kg roflumilast p.o. at 1300 hours

Q: Which “effect of co-administration on roflumilast-mediated loss of body weight (FIG. 1)” value [1, 5] does the source give for `O=C(O)Cc1ccccc1Nc1c(Cl)cccc1Cl` [diclofenac] here?
A: The value was “substantially reduced or prevented”.

Q: And the “effect of co-administration on roflumilast-mediated loss of spleen weight (FIG. 2)” value [1, 5]?
A: Its value is “substantially reduced or prevented”.

Q: What about the “effect of co-administration on roflumilast-mediated mesenteric vasculitis (FIG. 4)” value [1, 5] of the same molecule?
A: The value was “substantially reduced or prevented”.

Q: What about the “effect of co-administration on roflumilast-mediated neutrophilia (FIG. 3)” value [1, 5] of the same molecule?
A: Its value is “substantially reduced or prevented”.

Q: What about the “parameters measured after administration on its own (body weight, spleen weight, neutrophils, vasculitis)” value (“parameters measured after administration” below) ([1]; 1 mg/kg p.o. at 0800 and 1700 hours, four days, without roflumilast) of the same molecule?
A: The value was “very similar to the control groups”.

Q: Which “effect of co-administration on roflumilast-mediated loss of body weight (FIG. 5)” value [2, 6] does the source give for `Cc1ccc(Nc2c(F)cccc2Cl)c(CC(=O)O)c1` [Lumiracoxib] here?
A: The value was “substantially reduced or prevented”.

Q: What about the “effect of co-administration on roflumilast-mediated loss of spleen weight (FIG. 6)” value [2, 6] of the same molecule?
A: The value was “substantially reduced or prevented”.

Q: What about the “effect of co-administration on roflumilast-mediated mesenteric vasculitis (FIG. 8)” value [2, 6] of the same molecule?
A: The value was “substantially reduced or prevented”.

Q: What about the “effect of co-administration on roflumilast-mediated neutrophilia (FIG. 7)” value [2, 6] of the same molecule?
A: Its value is “substantially reduced or prevented”.

Q: And the “parameters measured after administration” value ([2]; 2 mg/kg p.o. at 0800 and 1700 hours, without roflumilast)?
A: The value was “very similar to the control groups”.

Q: Which “loss of body weight (FIG. 5)” value [2, 7] does the source give for `O=C(Nc1c(Cl)cncc1Cl)c1ccc(OC(F)F)c(OCC2CC2)c1` [Roflumilast] here?
A: Its value is “observed”.

Q: And the “loss of spleen weight (FIG. 6)” value [2, 7]?
A: Its value is “observed”.

Q: And the “mesenteric vasculitis (monocyte/polymorphonuclear perivascular infiltration into the mesentery, FIG. 8)” value [2, 7]?
A: The value was “observed”.

Q: And the “neutrophilia (FIG. 7)” value [2, 7]?
A: Its value is “observed”.

Q: What about the “loss of body weight (FIG. 9)” value [3, 7] of the same molecule?
A: Its value is “observed”.

Q: What about the “loss of spleen weight (FIG. 10)” value [3, 7] of the same molecule?
A: The value was “observed”.

Q: What about the “mesenteric vasculitis (monocyte/polymorphonuclear perivascular infiltration into the mesentery, FIG. 12)” value [3, 7] of the same molecule?
A: The value was “observed”.

Q: What about the “neutrophilia (FIG. 11)” value [3, 7] of the same molecule?
A: Its value is “observed”.

Q: What about the “loss of body weight (FIG. 13)” value [4, 7] of the same molecule?
A: The value was “observed”.

Q: What about the “loss of spleen weight (FIG. 14)” value [4, 7] of the same molecule?
A: Its value is “observed”.

Q: What about the “mesenteric vasculitis (monocyte/polymorphonuclear perivascular infiltration in the mesentery, FIG. 16)” value [4, 7] of the same molecule?
A: The value was “observed”.

Q: What about the “neutrophilia (FIG. 15)” value [4, 7] of the same molecule?
A: Its value is “observed”.

Q: And the death of animals ([1]; Roflumilast group: 10 mg/kg p.o. daily, six rats per group)?
A: Its death of animals is “one rat from the roflumilast group which died between day 4 and day 5”.

Q: Which “effect of co-administration on roflumilast-mediated loss of body weight (FIG. 13)” value [4, 8] does the source give for `CC(C)Oc1ccc2c(=O)c3cc(C(=O)O)ccc3oc2c1` [AH6809, 6-isopropoxy-9-oxoxanthene-2-carboxylic acid] here?
A: The value was “no indications that the EP2 preferential receptor antagonist AH-809 had any influence”.

Q: And the “effect of co-administration on roflumilast-mediated loss of spleen weight (FIG. 14)” value [4, 8]?
A: Its value is “no indications that the EP2 preferential receptor antagonist AH-809 had any influence”.

Q: And the “effect of co-administration on roflumilast-mediated mesenteric vasculitis (FIG. 16)” value [4, 8]?
A: Its value is “no indications that the EP2 preferential receptor antagonist AH-809 had any influence”.

Q: And the “effect of co-administration on roflumilast-mediated neutrophilia (FIG. 15)” value [4, 8]?
A: Its value is “no indications that the EP2 preferential receptor antagonist AH-809 had any influence”.

Q: And the “effect of EP2 blockage on the parameters measured (roflumilast-mediated side effects, overall)” value ([4]; 10 mg/kg p.o. + 10 mg/kg roflumilast p.o.)?
A: The value was “shows no effect on the parameters measured”.

Q: What about the “parameters measured after administration” value ([4]; 10 mg/kg p.o. daily, without roflumilast) of the same molecule?
A: Its value is “very similar to the control group”.

Q: For `CCOc1c2c(c(OCC)c3ncccc13)CN(c1ccc(CS(=O)(=O)NC(=O)Cc3ccccc3OC)cc1C)C2=O` [MF-498, N-{[4-(5,9-diethoxy-6-oxo-6,8-dihydro-7H-pyrrolo[3,4-g]quinolin-7-yl)-3-methylbenzyl]sulphonyl}-2-(2-methoxyphenyl)acetamide], which “effect of co-administration on roflumilast-mediated loss of body weight (FIG. 9)” value [3, 9] is on record?
A: The value was “substantially reduced”.

Q: And the “effect of co-administration on roflumilast-mediated loss of spleen weight (FIG. 10)” value [3, 9]?
A: The value was “substantially reduced”.

Q: What about the “effect of co-administration on roflumilast-mediated mesenteric vasculitis (FIG. 12)” value [3, 9] of the same molecule?
A: The value was “substantially reduced”.

Q: What about the “effect of co-administration on roflumilast-mediated neutrophilia (FIG. 11)” value [3, 9] of the same molecule?
A: The value was “substantially reduced”.

Q: What about the “differences in the weight of the spleen between the Roflumilast group and the Roflumilast+MF-498 group (statistics)” value ([3]; 20 mg/kg p.o. + 10 mg/kg roflumilast p.o., two-way analysis of variance) of the same molecule?
A: Its value is “do not achieve statistical significance”.

Q: What about the “parameters measured after administration” value ([3]; 20 mg/kg p.o. daily, without roflumilast) of the same molecule?
A: The value was “very similar to the control group”.
